# Assay results reported in patent US9616065B2, “Compositions useful in treating brain-related diseases or disorders and methods using same” (priority 2013, dated 2017).
# “Also recorded” adds a separate entry of the source. Where two headings read alike, the source gives them in different places.
# How the values were obtained:
# [1] = tested on: hDAT L89C mutant (L89A); test: Dopamine uptake inhibition assay, hDAT L89 mutant; type: cell-based, human
# Protocol: (§1) Mutants are functionally tested in transfected COS-7 cells. Based on the success of the approach that identified the A1 site, the critical residues identified elsewhere herein are tested for changes in uptake kinetics and amphetamine-mediated efflux. Following this initial screen, residues displaying altered activity are tested further in uptake inhibition and ligand displacement assays. For uptake, cells are washed with PBSCM (phosphate-buffered saline with 1 mM MgCl, 0.1 mM CaCl2, 100 μM ascorbic acid, 10 μM clorgyline, 100 μM pargyline, and 10 μM RO 41-0960). To initiate uptake, cells are incubated for 10 min at 25° C. with various concentrations of radiolabeled monoamine. Following uptake, cells are washed and radioactivity is counted using liquid scintillation counting. […] Apparent Km and Vmax are determined using nonlinear regression analysis. The interaction of WT and mutant MAT with psychostimulants and transporter inhibitors is assessed using uptake inhibition assays. Cells are transfected as described elsewhere herein, but before uptake is initiated the cells are preincubated with various concentrations of ligand for 10 min. Uptake is initiated and performed as described elsewhere herein.
# [2] = target: T1, hDAT (Homo sapiens, UniProt Q01959); test: [3H]-dopamine uptake after preincubation with modulator; type: cell-based
# T1 construct: expressed in transfected cells; host or cells: COS-7, HEK293 or MDCK
# T1 sequence (Q01959 whole entry): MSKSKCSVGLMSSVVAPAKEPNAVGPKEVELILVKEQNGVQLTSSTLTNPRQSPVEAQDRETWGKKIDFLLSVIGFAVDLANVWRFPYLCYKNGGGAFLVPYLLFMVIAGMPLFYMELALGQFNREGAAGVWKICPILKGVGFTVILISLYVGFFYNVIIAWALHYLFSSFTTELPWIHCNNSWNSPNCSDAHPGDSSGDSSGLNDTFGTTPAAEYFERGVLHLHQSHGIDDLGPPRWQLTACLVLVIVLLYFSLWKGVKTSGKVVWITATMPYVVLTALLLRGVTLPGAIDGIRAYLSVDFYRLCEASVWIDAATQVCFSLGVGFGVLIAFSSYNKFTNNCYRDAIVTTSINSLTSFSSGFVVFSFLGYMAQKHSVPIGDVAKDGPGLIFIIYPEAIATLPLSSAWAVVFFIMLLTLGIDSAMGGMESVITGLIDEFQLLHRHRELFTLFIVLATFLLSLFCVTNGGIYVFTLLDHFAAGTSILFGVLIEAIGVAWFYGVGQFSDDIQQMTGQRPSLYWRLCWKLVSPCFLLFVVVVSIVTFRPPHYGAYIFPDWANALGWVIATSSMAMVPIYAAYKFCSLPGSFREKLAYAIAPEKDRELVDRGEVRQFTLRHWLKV
# Protocol: (§2) COS-7, HEK293, and MDCK cells were maintained in Dulbecco modified Eagle medium (3.5 g/l glucose) supplemented with FBS (10% each) at 37° C. with 5% CO2. Uptake experiments were performed 2 days after transfecting DNAs (hSERT, human dopamine transporter [hDAT], chimeras or mutants, or empty vector for background) with TransIT-LT1 (Minis Bio LLC, Madison, Wis., USA) transfection reagent and plating the cells in 24- or 96-well plates.
# (§3) The uptake was allowed to continue for 10 min at room temperature and was terminated by washing with PBS-CM. […] Vmax and KM are given as mean±S.D. of three independent experiments. […] EC50 values are given as mean±S.E.M. of at least five independent experiments. Statistical significance between vehicle and drug treatments was assessed using Student t-test or one-way analysis of variance (ANOVA) Dunnett's multiple-comparison test (p<0.05).
# [3] = target: T2, WT hDAT (Homo sapiens, UniProt Q01959); test: Amphetamine-induced efflux with modulator, hDAT WT; type: cell-based; conditions: 5 nM amphetamine
# T2 construct: expressed in transfected cells; host or cells: COS-7, HEK293 or MDCK
# T2 sequence (Q01959 whole entry): as above
# Protocol: (§4) Efflux is terminated by collecting the supernatant. Both cells and supernatant are counted by liquid scintillation counting. Efflux is calculated as ratio of supernatant over supernatant and cells.
# [4] = target: T3, hDAT N93A mutant (Homo sapiens, UniProt Q01959, N93A); test: Amphetamine-induced efflux with modulator, hDAT N93A mutant; type: cell-based; conditions: low concentrations of amphetamine
# T3 construct: expressed in transfected cells; host or cells: COS-7
# T3 sequence (Q01959 1-620 N93A): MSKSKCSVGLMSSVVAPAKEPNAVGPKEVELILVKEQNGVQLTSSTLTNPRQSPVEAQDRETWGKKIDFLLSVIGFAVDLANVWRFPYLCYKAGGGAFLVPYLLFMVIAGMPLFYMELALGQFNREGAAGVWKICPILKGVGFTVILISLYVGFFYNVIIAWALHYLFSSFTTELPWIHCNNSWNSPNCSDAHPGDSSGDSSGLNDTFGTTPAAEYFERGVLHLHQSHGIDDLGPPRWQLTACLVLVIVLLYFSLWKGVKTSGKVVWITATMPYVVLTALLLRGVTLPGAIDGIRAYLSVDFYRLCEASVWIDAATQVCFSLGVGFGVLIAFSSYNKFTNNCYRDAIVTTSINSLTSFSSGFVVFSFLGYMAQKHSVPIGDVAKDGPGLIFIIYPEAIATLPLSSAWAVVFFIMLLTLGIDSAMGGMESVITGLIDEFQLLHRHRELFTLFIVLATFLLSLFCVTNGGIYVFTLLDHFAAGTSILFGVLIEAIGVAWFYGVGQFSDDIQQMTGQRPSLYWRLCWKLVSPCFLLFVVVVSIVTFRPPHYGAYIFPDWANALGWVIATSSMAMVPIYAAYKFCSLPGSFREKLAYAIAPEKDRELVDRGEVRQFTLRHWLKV
# Protocol: as §4
# [5] = target: T4, hSERT wild-type (Homo sapiens, UniProt P31645); test: Basal/leak [3H]-serotonin efflux in COS-7 cells, wild-type; type: cell-based; conditions: no extracellular substrate, read-out: IC50 inhibition of basal/leak efflux
# T4 construct: The templates were full-length and nontagged human SERT in pcdna3.1; expressed in transfected cells; host or cells: COS-7 (efflux)
# Protocol: (§5) COS-7 cells were maintained under the same conditions as above. Efflux experiments were performed 2 days after cell transfection with hSERT or empty vector and plating of the cells in 24-well plates. Cells were washed with room temperature PBS-CM and then loaded with 50 nM [^3H]-serotonin for 1 h. After preloading, cells were washed twice with buffer and then incubated for 10 min with or without substrates at room temperature. After incubation, the supernatant was collected, liquid scintillation fluid added, and the samples counted (Beckman LS-6500 Multi-purpose Scintillation Counter; Beckman Coulter, Brea, Calif.). The cells were solubilized in a solution of 0.1% sodium dodecyl sulfate and 0.1 M NaOH; liquid scintillation fluid was added and tubes were counted as above. All assays were done in quadruplicate.
# (§6) The percentage of [^3H]-serotonin efflux among different treatments was calculated by adding counts of supernatant plus cell lysis, with the supernatant counts then divided by the total and multiplied by 100 to yield the percentage of efflux.
# [6] = target: T5, SERT (Homo sapiens, UniProt P31645); test: [3H]-serotonin uptake after preincubation with modulator; type: cell-based; conditions: for effect on Vmax of serotonin uptake: serotonin uptake kinetics
# T5 construct: The templates were full-length and nontagged human SERT in pcdna3.1; expressed in transfected cells; host or cells: COS-7, HEK293 or MDCK (uptake); COS-7 (efflux)
# Protocol: as §2, §3
# [7] = target: T6, hSERT 112C mutant (N112C) (Homo sapiens, UniProt P31645, N112C); test: MDMA-elicited [3H]-serotonin efflux in COS-7 cells, 112C mutant; type: cell-based; conditions: for effect on MDMA-elicited efflux: 112C (N112C) mutant, 1 μM modulator
# T6 construct: The templates were full-length and nontagged human SERT in pcdna3.1; expressed in transfected cells; host or cells: COS-7 (efflux)
# Protocol: as §5, §6
# [8] = target: paroxetine binding sites (Homo sapiens, UniProt P31645); test: Paroxetine binding
# [9] = target: wild-type human SERT (Homo sapiens, UniProt P31645); test: MDMA-elicited [3H]-serotonin efflux in COS-7 cells, wild-type; type: cell-based; parameters: The templates were full-length and nontagged human SERT in pcdna3.1; expressed in transfected cells; host or cells: COS-7 (efflux); conditions: for effect on MDMA-elicited efflux: 1 μM modulator
# Protocol: as §5, §6
# [10] = target: T7, hSERT 112C mutant (Homo sapiens, UniProt P31645, N112C); test: Basal/leak [3H]-serotonin efflux in COS-7 cells, 112C mutant; type: cell-based
# T7 construct: The templates were full-length and nontagged human SERT in pcdna3.1; expressed in transfected cells; host or cells: COS-7 (efflux); COS-7, HEK293 or MDCK (uptake)
# Protocol: as §5, §6
# [11] = target: T8, NET (Homo sapiens, UniProt P23975); test: NET interaction with amphetamine in presence of modulator; type: cell-based
# T8 construct: expressed in transfected cells
# T8 sequence (P23975 whole entry): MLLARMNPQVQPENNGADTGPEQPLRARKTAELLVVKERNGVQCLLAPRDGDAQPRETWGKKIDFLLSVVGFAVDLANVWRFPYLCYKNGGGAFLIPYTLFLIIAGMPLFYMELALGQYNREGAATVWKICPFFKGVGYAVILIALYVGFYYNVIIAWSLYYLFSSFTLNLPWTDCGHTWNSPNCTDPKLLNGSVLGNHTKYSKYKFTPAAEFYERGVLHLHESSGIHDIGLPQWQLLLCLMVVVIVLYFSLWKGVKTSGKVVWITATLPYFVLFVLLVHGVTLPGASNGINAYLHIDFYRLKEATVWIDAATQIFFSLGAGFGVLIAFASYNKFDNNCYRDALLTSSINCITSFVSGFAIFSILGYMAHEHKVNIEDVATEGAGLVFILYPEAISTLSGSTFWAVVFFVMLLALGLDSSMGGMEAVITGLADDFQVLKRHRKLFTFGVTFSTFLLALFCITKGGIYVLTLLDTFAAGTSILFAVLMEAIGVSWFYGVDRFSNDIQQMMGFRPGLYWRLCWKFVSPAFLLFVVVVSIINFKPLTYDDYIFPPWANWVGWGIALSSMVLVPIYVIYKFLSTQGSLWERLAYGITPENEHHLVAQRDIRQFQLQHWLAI
# Protocol: as §1
# [12] = target: T8, NET; test: hNET uptake assay with transporter modulators; type: cell-based
# [13] = target: T5, SERT; test: SERT-mediated serotonin uptake inhibition by SSRIs in presence of modulator; type: cell-based; conditions: effect weaker than with citalopram
# Protocol: as §2, with “plates. The media was removed and the cells were washed with PBS (137 mM NaCl, 2.7 mM KCl, 4.3 mM Na2HPO4, 1.4 mM KH2PO4, pH 7.4) containing 0.1 mM CaCl2, 1 mM MgCl2, 10 μM clorgyline, 10 μM pargyline, 5 μM RO 41-0960, and 100 μM ascorbic acid (PBS-CM).” for “plates.”
# Mutants are functionally tested in transfected COS-7 cells. Based on the success of the approach that identified the A1 site, the critical residues identified elsewhere herein are tested for changes in uptake kinetics and amphetamine-mediated efflux. Following this initial screen, residues displaying altered activity are tested further in uptake inhibition and ligand displacement assays. […] Following uptake, cells are washed and radioactivity is counted using liquid scintillation counting. […] Apparent Km and Vmax are determined using nonlinear regression analysis. The interaction of WT and mutant MAT with psychostimulants and transporter inhibitors is assessed using uptake inhibition assays. […]
# [14] = target: T9, SERT E493D mutant (Homo sapiens, UniProt P31645, E493D); test: SERT function with mutated extracellular gate; type: cell-based
# T9 construct: The templates were full-length and nontagged human SERT in pcdna3.1; expressed in transfected cells; host or cells: COS-7
structure (smiles),measurement,setting,value
CCc1ccc2[nH]c3nc(SCCNS(=O)(=O)c4ccc(NC(C)=O)cc4)nnc3c2c1 [ATM5],affinity of mutant for ATM5 versus WT,[1],increased affinity for ATM5
same,effect on DAT uptake activity / specificity,[2],higher activity towards hDAT than hSERT
same,shape of concentration response on hDAT uptake,[2],biphasic activity enhancing hDAT activity at low concentrations and inhibiting hDAT function at higher concentrations
same,effect on DAT uptake activity / specificity,[2]; listed as KM-822,specific for DAT
same,effect on amphetamine-mediated efflux,[3],potentiated amphetamine-mediated efflux; also recorded: potentiated amphetamine mediated efflux
same,effect on amphetamine-elicited efflux,[4],blocking amphetamine-elicited efflux; also recorded: blocked
"CN(C)c1ccc(C(C(=O)NCc2ccccc2)N(Cc2cccnc2)C(=O)c2snc(C(N)=O)c2N)cc1 (stereo not drawn) [ATM7, 4-amino-N^5-{2-(benzylamino)-1-[4-(dimethylamino)phenyl]-2-oxoethyl}-N^5-(3-pyridinylmethyl)-1,2-thiazole-3,5-dicarboxamide]",effect on DAT uptake activity / specificity,[2],also DAT activity at higher concentrations
same,IC50,[5],0.63 ± 0.31 nM
same,effect on SERT uptake activity / specificity,[6],activated serotonin uptake very potently at nanomolar concentrations
same,shape of concentration response on transporter uptake,[6],bell-shaped response
same,activation of serotonin uptake,[6]; dose-response assay,up to 50%
same,shape of concentration response on transporter uptake,[6]; listed as KM-986,"biphasic mode of action, enhancing transporter activity at low concentrations and inhibiting transporter function at higher concentrations"
same,effect on Vmax of serotonin uptake,[6],did not affect Vmax; also recorded: no effect
same,effect on Vmax of serotonin uptake,[6]; listed as KM-986,do not observe any effect; also recorded: no effect
same,effect on hSERT uptake at low and high substrate concentration,[6]; substrate 25 and 100 nM,displayed activity only at low concentrations
same,efficacy of MDMA in eliciting release of intracellular serotonin in the presence of ATM7,"[7]; 1 μM ATM7, 112C mutant, vehicle treated 365%±40%",375%±45%
same,effect on MDMA-elicited efflux,[7],had no effect on MDMA-elicited efflux
same,effect on MDMA-elicited efflux,[7]; listed as KM-986,does not show KM-986-mediated potentiation of MDMA-elicited efflux
same,effect on paroxetine binding sites,[8],decreased
same,effect on affinity for MDMA,[9]; 1 μM ATM7,not affected
same,efficacy of MDMA in eliciting release of intracellular serotonin in the presence of ATM7,"[9]; 1 μM ATM7, vehicle treated 380%±10%",510%±17%
same,effect on MDMA-elicited efflux,[9],enhanced MDMA-elicited efflux
same,effect on MDMA-elicited efflux,[9]; listed as KM-986,potentiates MDMA-elicited efflux
same,IC50,[10],37 ± 25 nM
"COc1cc(C(C(=O)NCCC(C)C)N(CCCO)C(=O)c2snc(C(N)=O)c2N)ccc1O (stereo not drawn) [ATM2, 4-amino-N^5-{1-(4-hydroxy-3-methoxyphenyl)-2-[(3-methylbutyl)amino]-2-oxoethyl}-N^5-(3-hydroxypropyl)-1,2-thiazole-3,5-dicarboxamide]",effect on affinity of amphetamine for NET,[11],affinity for amphetamine was enhanced
same,effect on SERT uptake activity / specificity,[6],higher activity towards SERT
same,shape of concentration response on transporter uptake,[6],"biphasic mode of action, enhancing transporter activity at low concentrations and inhibiting transporter function at higher concentrations"
"COc1cccc(NC(=O)Cn2c(SCC(=O)Nc3ccc(F)cc3)nnc2-c2ccncc2)c1 [KM-409, N-(4-fluorophenyl)-2-((4-(2-((3-methoxyphenyl)amino)-2-oxoethyl)-5-(pyridin-4-yl)-4H-1,2,4-triazol-3-yl)thio)acetamide]",activity towards NET,[12],displayed activity towards NET
"Cc1cc2nc(-c3ccc(SCC(=O)Nc4ccc(S(=O)(=O)NC5CC5)cc4)nc3)[nH]c2cc1C [ATM1, N-[4-(cyclopropylsulfamoyl)phenyl]-2-{[5-(5,6-dimethyl-1H-benzimidazol-2-yl)-2-pyridinyl]sulfanyl}acetamide]",effect on SERT uptake activity / specificity,[6],SERT-specific inhibitor
same,mechanism of SERT inhibition,[6]; Vmax and KM,non-competitive mechanism
same,effect on SERT uptake activity / specificity,[6]; listed as KM-456,specific for SERT
same,effect on affinity of fluoxetine for SERT,[13],decreasing their affinity for SERT
same,effect on SERT function,[14],not affected
